Patent US11390589B2, “Herbicidally active substituted phenylpyrimidines” (Bayer Aktiengesellschaft, priority 2018, dated 2022)

Columns and labels:
Format in all cases: in vivo
[1] = system: Polygonum convolvulus; experiment: Method A: post-emergence herbicidal action; conditions: rated visually after about 3 weeks
Method: (§1) Method A: Post-Emergence Herbicidal Action and Crop Plant Compatibility
(§2) Seeds of monocotyledonous and dicotyledonous weeds and crop plants are placed in sandy loam in plastic or organic planting pots, covered with soil and cultivated in a greenhouse under controlled growth conditions. 2 to 3 weeks after sowing, the test plants are treated at the one-leaf stage. The compounds of the invention, formulated in the form of wettable powders (WP) or as emulsion concentrates (EC), are then sprayed onto the green parts of the plants as aqueous suspension or emulsion with addition of 0.5% additive at a water application rate of […] (converted). After the test plants have been kept in the greenhouse under optimum growth conditions for about 3 weeks, the activity of the preparations is rated visually in comparison to untreated controls. For example, 100% activity=the plants have died, 0% activity=like control plants.

[2] = system: Lolium rigidum; experiment: Method A: post-emergence herbicidal action; conditions: rated visually after about 3 weeks
Method: as §1, §2

[3] = system: Alopecurus myosuroides; experiment: Method A: post-emergence herbicidal action; conditions: rated visually after about 3 weeks
Method: as §1, §2

[4] = system: Avena fatua; experiment: Method A: post-emergence herbicidal action; conditions: rated visually after about 3 weeks
Method: as §1, §2

[5] = system: Hordeum murinum; experiment: Method A: post-emergence herbicidal action; conditions: rated visually after about 3 weeks
Method: as §1, §2

[6] = system: Echinochloa crus-galli; experiment: Method A: post-emergence herbicidal action; conditions: rated visually after about 3 weeks
Method: as §1, §2

[7] = system: Stellaria media; experiment: Method A: post-emergence herbicidal action; conditions: rated visually after about 3 weeks
Method: as §1, §2

[8] = system: Poa annua; experiment: Method E: herbicidal early post-emergence action; conditions: cotyledon stage, 96-well microtiter plates, scored visually after 9 to 12 days
Method: (§3) Method E: Herbicidal Early Post-Emergence Action Seeds of monocotyledonous or dicotyledonous weed plants are placed in 96-well microtiter plates in quartz sand and grown in a climatized chamber under controlled growth conditions. 5 to 7 days after sowing, the test plants are treated at the cotyledon stage. The compounds of the invention, formulated in the form of emulsion concentrates (EC), are applied with a water application rate of the equivalent of 2200 liters per hectare. After the test plants had been left to stand in the climatized chamber for 9 to 12 days under optimum growth conditions, the effect of the preparations is scored visually in comparison to untreated controls. For example, 100% activity=the plants have died, 0% activity=like control plants.

[9] = system: Agrostis tenuis; experiment: Method E: herbicidal early post-emergence action; conditions: cotyledon stage, 96-well microtiter plates, scored visually after 9 to 12 days
Method: as §3

[10] = system: Matricaria chamonilla; experiment: Method E: herbicidal early post-emergence action; conditions: cotyledon stage, 96-well microtiter plates, scored visually after 9 to 12 days
Method: as §3

[11] = system: Lolium perenne; experiment: Method E: herbicidal early post-emergence action; conditions: cotyledon stage, 96-well microtiter plates, scored visually after 9 to 12 days
Method: as §3

[12] = system: Stellaria media; experiment: Method E: herbicidal early post-emergence action; conditions: cotyledon stage, 96-well microtiter plates, scored visually after 9 to 12 days
Method: as §3

[13] = system: harmful plants; experiment: Method B: pre-emergence herbicidal action, summary in text; conditions: applied pre-emergence, table B (320 g/ha)
Description: (§4) Method B: Pre-Emergence Herbicidal Action and Crop Plant Compatibility
(§5) Seeds of monocotyledonous and dicotyledonous weed plants and crop plants are placed in plastic or organic planting pots and covered with soil. The compounds of the invention, formulated in the form of wettable powders (WP) or as emulsion concentrates (EC), are then applied onto the surface of the covering soil as aqueous suspension or emulsion with addition of 0.5% additive at a water application rate of 6001/ha (converted). After the treatment, the pots are placed in a greenhouse and kept under good growth conditions for the trial plants. After about 3 weeks, the effect of the preparations is scored visually in comparison with untreated controls as percentages. For example, 100% activity=the plants have died, 0% activity=like control plants.

[14] = system: Polygonum convolvulus; experiment: Method B: pre-emergence herbicidal action; conditions: scored visually after about 3 weeks
Description: as §4, §5

[15] = system: Lolium rigidum; experiment: Method B: pre-emergence herbicidal action; conditions: scored visually after about 3 weeks
Description: as §4, §5

[16] = system: Digitaria sanguinalis; experiment: Method B: pre-emergence herbicidal action; conditions: scored visually after about 3 weeks
Description: as §4, §5

[17] = system: Alopecurus myosuroides; experiment: Method B: pre-emergence herbicidal action; conditions: scored visually after about 3 weeks
Description: as §4, §5

[18] = system: Avena fatua; experiment: Method B: pre-emergence herbicidal action; conditions: scored visually after about 3 weeks
Description: as §4, §5

[19] = system: Hordeum murinum; experiment: Method B: pre-emergence herbicidal action; conditions: scored visually after about 3 weeks
Description: as §4, §5

[20] = system: Echinochloa crus-galli; experiment: Method B: pre-emergence herbicidal action; conditions: scored visually after about 3 weeks
Description: as §4, §5

[21] = system: Stellaria media; experiment: Method B: pre-emergence herbicidal action; conditions: scored visually after about 3 weeks
Description: as §4, §5

[22] = system: Abufilon theophrast; experiment: Method B: pre-emergence herbicidal action; conditions: scored visually after about 3 weeks
Description: as §4, §5

[23] = system: harmful plants; experiment: Method A: post-emergence herbicidal action, summary in text; conditions: applied post-emergence, table A (320 g/ha)
Method: as §1, §2

[24] = system: harmful plants; experiment: Method E: herbicidal early post-emergence action, summary in text; conditions: applied in early post-emergence, table E (1900 g/ha)
Method: as §3

[25] = system: harmful plants; experiment: Method D: herbicidal pre-emergence action, summary in text; conditions: applied pre-emergence, table D (1280 g/ha)
Description: as §5, with “Method D: Herbicidal Pre-Emergence Action Seeds” for “Seeds”, “mono-” for “monocotyledonous”, “weed” for “weed plants and crop”, “plastic pots in sandy loam soil (doubly sown with one species each of mono-” for “plastic”, “dicotyledonous weed plants per pot)” for “organic planting pots”, “600 liters per hectare” for “6001/ha”

[26] = system: harmful plants; experiment: Method C: herbicidal post-emergence action, summary in text; conditions: applied post-emergence, table C (1280 g/ha)
Method: (§6) Method C: Herbicidal Post-Emergence Action Seeds of mono- and dicotyledonous weed plants are placed in plastic pots in sandy loam soil (doubly sown with one species each of mono- or dicotyledonous weed plants per pot), covered with soil and cultivated in a greenhouse under controlled growth conditions. 2 to 3 weeks after sowing, the test plants are treated at the one-leaf stage. The compounds of the invention, formulated in the form of wettable powders (WP) or as emulsion concentrates (EC), are applied to the green parts of the plants as aqueous suspension or emulsion with addition of 0.5% additive at a water application rate equivalent to 600 liters per hectare. After the test plants have been kept in the greenhouse under optimum growth conditions for about 3 weeks, the activity of the preparations is rated visually in comparison to untreated controls. For example, 100% activity=the plants have died, 0% activity=like control plants.

[27] = system: Lolium rigidum; experiment: Method C: herbicidal post-emergence action; conditions: rated visually after about 3 weeks
Method: as §6

[28] = system: Poa annua; experiment: Method C: herbicidal post-emergence action; conditions: rated visually after about 3 weeks
Method: as §6

[29] = system: Echinochloa crus-galli; experiment: Method C: herbicidal post-emergence action; conditions: rated visually after about 3 weeks
Method: as §6

[30] = system: Stellaria media; experiment: Method C: herbicidal post-emergence action; conditions: rated visually after about 3 weeks
Method: as §6

[31] = system: Matricaria inodora; experiment: Method D: herbicidal pre-emergence action; conditions: scored visually after about 3 weeks
Description: as §5, with “Method D: Herbicidal Pre-Emergence Action Seeds” for “Seeds”, “mono-” for “monocotyledonous”, “weed” for “weed plants and crop”, “plastic pots in sandy loam soil (doubly sown with one species each of mono-” for “plastic”, “dicotyledonous weed plants per pot)” for “organic planting pots”, “600 liters per hectare” for “6001/ha”

[32] = system: Lolium rigidum; experiment: Method D: herbicidal pre-emergence action; conditions: scored visually after about 3 weeks
Description: as §5, with “Method D: Herbicidal Pre-Emergence Action Seeds” for “Seeds”, “mono-” for “monocotyledonous”, “weed” for “weed plants and crop”, “plastic pots in sandy loam soil (doubly sown with one species each of mono-” for “plastic”, “dicotyledonous weed plants per pot)” for “organic planting pots”, “600 liters per hectare” for “6001/ha”

[33] = system: Setaria viridis; experiment: Method D: herbicidal pre-emergence action; conditions: scored visually after about 3 weeks
Description: as §5, with “Method D: Herbicidal Pre-Emergence Action Seeds” for “Seeds”, “mono-” for “monocotyledonous”, “weed” for “weed plants and crop”, “plastic pots in sandy loam soil (doubly sown with one species each of mono-” for “plastic”, “dicotyledonous weed plants per pot)” for “organic planting pots”, “600 liters per hectare” for “6001/ha”

[34] = system: Poa annua; experiment: Method D: herbicidal pre-emergence action; conditions: scored visually after about 3 weeks
Description: as §5, with “Method D: Herbicidal Pre-Emergence Action Seeds” for “Seeds”, “mono-” for “monocotyledonous”, “weed” for “weed plants and crop”, “plastic pots in sandy loam soil (doubly sown with one species each of mono-” for “plastic”, “dicotyledonous weed plants per pot)” for “organic planting pots”, “600 liters per hectare” for “6001/ha”

[35] = system: Echinochloa crus-galli; experiment: Method D: herbicidal pre-emergence action; conditions: scored visually after about 3 weeks
Description: as §5, with “Method D: Herbicidal Pre-Emergence Action Seeds” for “Seeds”, “mono-” for “monocotyledonous”, “weed” for “weed plants and crop”, “plastic pots in sandy loam soil (doubly sown with one species each of mono-” for “plastic”, “dicotyledonous weed plants per pot)” for “organic planting pots”, “600 liters per hectare” for “6001/ha”

[36] = system: Stellaria media; experiment: Method D: herbicidal pre-emergence action; conditions: scored visually after about 3 weeks
Description: as §5, with “Method D: Herbicidal Pre-Emergence Action Seeds” for “Seeds”, “mono-” for “monocotyledonous”, “weed” for “weed plants and crop”, “plastic pots in sandy loam soil (doubly sown with one species each of mono-” for “plastic”, “dicotyledonous weed plants per pot)” for “organic planting pots”, “600 liters per hectare” for “6001/ha”

[37] = system: Abufilon theophrast; experiment: Method D: herbicidal pre-emergence action; conditions: scored visually after about 3 weeks
Description: as §5, with “Method D: Herbicidal Pre-Emergence Action Seeds” for “Seeds”, “mono-” for “monocotyledonous”, “weed” for “weed plants and crop”, “plastic pots in sandy loam soil (doubly sown with one species each of mono-” for “plastic”, “dicotyledonous weed plants per pot)” for “organic planting pots”, “600 liters per hectare” for “6001/ha”

Row | Compound | Post-emergence action at 320 g/ha POLCO [1] | Post-emergence action at 320 g/ha LOLRI [2] | Post-emergence action at 320 g/ha ALOMY [3] | Post-emergence action at 320 g/ha AVEFA [4] | Post-emergence action at 320 g/ha HORMU [5] | Post-emergence action at 320 g/ha ECHCG [6] | Post-emergence action at 320 g/ha STEME [7] | Early post-emergence action at 1900 g/ha POAAN [8] | Early post-emergence action at 1900 g/ha AGSTE [9] | Early post-emergence action at 1900 g/ha MATCH [10] | Early post-emergence action at 1900 g/ha LOLPE [11] | Early post-emergence action at 1900 g/ha STEME [12] | herbicidal efficacy against harmful plants [13] | Pre-emergence action at 320 g/ha POLCO [14] | Pre-emergence action at 320 g/ha LOLRI [15] | Pre-emergence action at 320 g/ha DIGSA [16] | Pre-emergence action at 320 g/ha ALOMY [17] | Pre-emergence action at 320 g/ha AVEFA [18] | Pre-emergence action at 320 g/ha HORMU [19] | Pre-emergence action at 320 g/ha ECHCG [20] | other results
1 | CN(C)C(=O)C(=O)Cc1nc(C2CC2)ncc1-c1ccccc1Cl [Example I-139, 3-[5-(2-chlorophenyl)-2-cyclopropylpyrimidin-4-yl]-N,N-dimethyl-2-oxopropanamide] | 90% | 100% | 100% | 90% | 90% | 90% | 80% | 100% | 100% | 100% | 80% | 100% | very good herbicidal efficacy | 90% | 100% | 100% | 100% | 80% | 90% | 100% | Pre-emergence action at 320 g/ha STEME [21]: 100%; Pre-emergence action at 320 g/ha ABUTH [22]: 80%; herbicidal efficacy against harmful plants [23]: very good herbicidal efficacy
2 | O=C(Cc1nc(C2CC2)ncc1-c1c(F)cccc1Cl)C(=O)N1CCCCC1 [Example I-146, 3-[5-(2-chloro-6-fluorophenyl)-2-cyclopropylpyrimidin-4-yl]-1-(piperidin-1-yl)propane-1,2-dione] |  |  |  |  |  |  |  | 80% | 80% | 80% | 80% | 80% |  |  |  |  |  |  |  |  | 
3 | CCOC(=O)C(=O)Cc1nc(C2CC2)ncc1-c1ccccc1Cl [II-099, ethyl 3-[5-(2-chlorophenyl)-2-cyclopropylpyrimidin-4-yl]-2-oxopropanoate] | 90% | 100% | 90% | 90% | 80% | 90% | 100% | 100% | 100% | 100% |  |  | very good herbicidal efficacy | 90% | 100% | 90% | 100% | 90% | 90% | 100% | herbicidal efficacy against harmful plants [24]: very good herbicidal efficacy; Pre-emergence action at 320 g/ha STEME [21]: 100%; Pre-emergence action at 320 g/ha ABUTH [22]: 80%; herbicidal efficacy against harmful plants [23]: very good herbicidal efficacy
4 | CN(NC(=O)C(=O)Cc1nc(C2CC2)ncc1-c1ccccc1Cl)C(=O)OC(C)(C)C [IV-137, tert-butyl 2-{3-[5-(2-chlorophenyl)-2-cyclopropylpyrimidin-4-yl]-2-oxopropanoyl}-1-methylhydrazinecarboxylate] |  |  |  |  |  |  |  | 80% | 100% | 80% | 80% | 100% |  |  |  |  |  |  |  |  | herbicidal efficacy against harmful plants [25]: very good herbicidal efficacy; herbicidal efficacy against harmful plants [26]: very good herbicidal efficacy; Post-emergence action at 1280 g/ha LOLRI [27]: 100%; Post-emergence action at 1280 g/ha POAAN [28]: 100%; Post-emergence action at 1280 g/ha ECHCG [29]: 100%; Post-emergence action at 1280 g/ha STEME [30]: 100%; herbicidal efficacy against harmful plants [24]: very good herbicidal efficacy; Pre-emergence action at 1280 g/ha MATIN [31]: 90%; Pre-emergence action at 1280 g/ha LOLRI [32]: 90%; Pre-emergence action at 1280 g/ha SETVI [33]: 90%; Pre-emergence action at 1280 g/ha POAAN [34]: 100%; Pre-emergence action at 1280 g/ha ECHCG [35]: 90%; Pre-emergence action at 1280 g/ha STEME [36]: 100%; Pre-emergence action at 1280 g/ha ABUTH [37]: 90%
